Data as given in patent US9981042B2, “Carbon nanotube-based anti-cancer agent capable of suppressing drug resistance” (INDUSTRY-ACADEMIC COOPERATION FOUNDATION GYEONGSANG …, priority 2012, dated 2018).

Key:
MDA-MB-231 tumor = assay: Tumor size and weight in MDA-MB-231 tumor model mice after tail vein injection; type: in vivo, BALB/c nude mice
Method: To prepare the animal tumor model, MDA-MB-231 cells were inoculated subcutaneously in the flank of female BALB/c nu/nu (athymic nude) mice (5×10^6 cells per mouse) When the tumor reached a mean volume of 100 mm^3 in the mice were used for the following Experimental Examples.
First, the tumor model mice prepared by transplanting MDA-MB-231 tumor cells to BALB/c nude mice were randomly divided into seven groups (n=10 per group) and injected with 200 μL of 0.5 mg/kg DOX, mwCNT, DOX-mwCNT in PBS, or pure PBS (negative control) in the tail vein. Subjects were weighed at 2, 9, and 16 days. Body weight and tumor sizes were measured twice a week for 21 days, and tumor volumes were calculated by the formula: V(volume)=X(length)×D(width)^2/2.
Twenty one day after the tail vein injection, the changes in tumor size of sacrificed animals were determined.
Furthermore, after the administration of the anticancer agent, tumor tissues taken from the sacrificed animals were weighed. In this case, in order to compare the significance of each group, Prism (GraphPad Software, Inc.) was used for statistical analysis with one-way ANOVA (analysis of variance) (** P<0.01, *** P<0.001).

[1] = system: late endosomes in MDA-MB-231 cells; assay: High resolution imaging of doxorubicin and late endosome marker; type: cell-based; conditions: 24 h
Method: Furthermore, the present inventors performed a high resolution image analysis for 24 h in order to investigate the degradation of uptaken doxorubicin signal by co-staining doxorubicin and late endosome specific marker. […] Therefore, it was understood that late endosomes act as transporters of doxorubicin excreted from nucleus.

Mrp-1 = Mrp-1 mRNA expression by RT-PCR; type: cell-based; conditions: 100 ng/ml for 2 h; after 6 hours and later
Method: (§1) MDA-MB-231 breast cancer cells (4×10^5 cells/well) known to overexpress MRP1 were plated in a 6 well plate and 100 ng/ml of doxorubicin and DOX-mwCNT were treated to the cells for 2 h, respectively. Carbon nanotube as a control was treated with a concentration of 348 ng/ml for 2 h.
Two hours after treatment, culture mediums were replaced with DMEM medium supplemented with 10% FBS and not containing mwCNT, DOX, and DOX-mwCNT, and the cells were further incubated. Then RNA was isolated from cells after 2, 6, 12, 24, and 36 hours of incubation, respectively and then Mrp-1 mRNA level was analyzed. In this case, TRIZOL reagent (Invitrogen, USA) and chloroform were used for RNA isolation, then the isolated RNA was reacted with same volume of isopropanol for 2 h, quantified and subjected to RT-PCR (reverse transcriptase PCR).

[2] = Particle size by transmission electron microscope; conditions: in PBS
MDA-MB-231 cells = assay: Efflux from cells (fluorescence microscopy); type: cell-based; conditions: 100 ng/ml for 2 h, then drug-free medium
Method: In addition, for efflux analysis, MDA-MB-231 cells (1×10^4 cells/well) cultivated in 24 well plate were treated with 100 ng/ml of DOX-mwCNT according to an embodiment of the present invention and doxorubicin, respectively. Two hours after the treatment, culture media was removed and the cells were washed three times with PBS and incubated with regular culture medium containing no anticancer agents for 24 h. Then the degree of efflux of doxorubicin from the cells was observed using a fluorescent microscope (FIG. 27). […] In the experiment, zero time (0 h) means a time when 2 hours has elapsed after removing doxorubicin and washing cells with PBS.

MRP-1 protein = MRP-1 protein western blot; type: cell-based; conditions: 100 ng/ml for 2 h; 24 hours after the treatment
Method: as §1
To confirm the above result in protein level, the present inventors performed western bot analysis of the MRP-1 protein, there was a significant difference in protein expression of MRP-1 between doxorubicin- and DOX-mwCNT-25-treating groups (FIG. 30). […] Despite of previous studies reporting that Mdr-1 and Mrp-1 genes mediate drug resistance of MDA-MB-231, Mdr-1 was hardly detected in this experiment due to short drug exposure time (2 hours).

MDA-MB-231 tumor tissue = assay: Histopathological observation (Haematoxylin-Eosin) of tumor tissues; type: in vivo, BALB/c nude mice; conditions: H&E; doxorubicin 0.5 and 5 mg/kg, DOX-mwCNT-25 0.5 mg/kg; versus control
Method: Then, the present inventors anesthetized the mice with ethyl ether, sacrificed them and collected tumor tissues therefrom. After measuring the weight of the collected tumor tissues, the tumor tissues were fixed for 24 hours in 10% formalin, washed with water and dehydrated and dipped in 70, 80, 90, 95 and 100% of ethanol, serially. The tissues were transparentized with xylene and embedded in paraffin. And then the embedded tissues were sliced at a thickness of 5 um, placed on glass slides.

A549 cells = assay: MTT assay on lung cancer cells; type: cell-based; conditions: A549, 48 h, 0.086-1.38 μmol/L
Method: A549 cells (1×10^4 cells/well, CAT: CRL-1658, ATCC) were seeded in a 96-well plate and incubated with DMEM medium supplementing 10% FBS (fetal bovine serum). At this time, the culture was maintained under the condition of 5% of CO2 at 37° C. The cells were cultured for 24 h and mwCNT-COOH, EPI, EPI-EGF, EPI-mwCNT and EPI-EGF-mwCNT were treated to each well with ratios of 0.086, 0.172, 0.345, 0.69, 1.38 μmol/L, respectively and then further cultured for 48 h. And then, drug solutions were removed from the plate, 100 μl of MTT reagent (1 mg/ml, 3-(4,5-dimethylthiazol-2-yl)-2,5-diphenyltetrazolium bromide) was slowly added to each well, and incubated for 1 h at 37° C. Thereafter, 100 μl of DMSO solution per well was added, followed by measuring absorbance at 560 nm using a microplate reader (Model 680, Bio-Rad).
Then, the present inventors treated drugs containing doxorubicin (DOX-EGF, DOX-mwCNT-25, DOX-EGF-mwCNT) to the same lung cancer cell A549. All the condition except drugs were same.

Compound | volume and mass of tumors (MDA-MB-231 tumor; 0.5 mg/kg, three times I.V. injection, 21 days) | size of tumor tissue compared to control group (MDA-MB-231 tumor; large dose 5 mg/kg) | late endosome signal [1] | expression of Mrp-1 gene (Mrp-1) | particle size (length variation) [2] | time to complete excretion from cells (MDA-MB-231 cells) | protein expression of MRP-1 (MRP-1 protein) | necrosis / damage of tumor tissue (MDA-MB-231 tumor tissue) | viability compared to group treated with only mwCNT-COOH (A549 cells)
COc1cccc2c1C(=O)c1c(O)c3c(c(O)c1C2=O)C[C@@](O)(C(=O)CO)C[C@@H]3O[C@H]1C[C@H](N)[C@H](O)[C@H](C)O1 [DOX, doxorubicin] | no notable tumor inhibition | decreased significantly | few late endosomes were observed | decreased | 0-40 nm | 6˜12 hours | weak band | increased necrosis | –
COc1cccc2c1C(=O)c1c(O)c3c(c(O)c1C2=O)C[C@@](O)(C(=O)CO)C[C@@H]3O[C@H]1C[C@H](N)[C@@H](O)[C@H](C)O1 [EPI, epirubicin] | – | – | – | – | – | – | – | – | lower viability
EPI-EGF (NSDSECPLSHDGYCLHDGVCMYIEALDKYACNCVVGYIGERCQYRDLKWWELR; Epidermal growth factor epirubicin conjugate; UniProt P01133 971-1023, looked up) | – | – | – | – | – | – | – | – | lower viability
